# Test results as given in patent publication US20230193562A1, “METHOD FOR CONTROLLING VOLATILE FATTY ACID CONTENT IN PULP, PAPER, AND/OR BOARD MAKING PROCESSES” (SOLENIS TECHNOLOGIES, L.P., priority 2021, published 2023).
# Like-named read-outs stand apart in the source and are kept apart here.
# Test system: Microbial strains (5) isolated from paper mill water samples
# Assay: VFA reduction in TGE broth cultures of paper mill microbial isolates, VFA measured by GC-FID
# Assay type: cell-based
# Method: Equipment: A Gas Chromatograph (GC) equipped with a flame ionization detector (FID) (e.g. Agilent 6890N GC or equivalent) equipped with an autosampler is utilized with a Fused Silica Capillary Column (e.g. Agilent DB-WAX UI, 30 m×0.53 mm×1.0 μm).
# Sample Preparation: An aliquot (0.5 mL) of a sample is taken from a shaken sample well via pipet and transferred into a glass vial with the standard diluent (4.5 mL). The glass vial is then capped and vortexed, and a portion of the contents transferred into a GC vial.
# GC Standardization: The GC is standardized by injecting 2.0 μL of each working standard using the instrument parameters listed in Table 2 below. The areas for the standards are used to create a linear calibration curve in GC software (e.g. Agilent Chemstation or equivalent).
# Quantitative Sample Analysis: Samples (2 μL injection volume) are analyzed against the working standards, with appropriate dilutions made to keep sample concentrations within the range of the standards. Peak areas of the samples are compared to the standard curves to determine the amounts of each VFA present in each sample via GC software (e.g. Agilent Chemstation or equivalent).
# Calibration: A working standard (10 or 50 ppm, 2 μL) is injected at the beginning and end of each set of samples, and intermittently within long sequences of sampling, and the concentration determined and compared to the to the standard curve to maintain calibration (+/−5% of standard curve).
# General Procedure: Microbial strains (5) are isolated from paper mill water samples onto individual petri plates. Overnight cultures are prepared by inoculating TGE Broth (10 mL) with a single colony from each petri plate (5 isolated strains=5 colonies per 10 mL overnight culture). Each culture is then incubated overnight at 35° C. with shaking. Portions (0.6 mL ea.) of each overnight culture are added to bottles with sterile TGE broth (29.4 mL) and the resulting mixtures are incubated with shaking at 35° C. After 2 hours (T=0), an initial sample from each bottles is taken and analyzed GC as described above. The samples are then dosed with a VFA Control Agent, capped, and incubated with shaking at 35° C. Aliquots of each sample are taken at various times post-dosage and analyzed via GC as described above, with each sample bottle capped and incubated between samplings along with an uninoculated control (sterile TGE broth) and an inoculated control (untreated). % VFA reduction is reported based on the relative VFA concentration (ppm) of a sample determined against the inoculated/untreated control.
# [1] = single VFA Control Agent at 50 or 100 ppm as per Example, 0.5 h post-dosage
# [2] = single VFA Control Agent at 50 or 100 ppm as per Example, 2 h post-dosage
# [3] = single VFA Control Agent at 50 or 100 ppm as per Example, 2.5 h post-dosage
# [4] = single VFA Control Agent, ppm as per Example (25-500 ppm), 4 h post-dosage, 35° C., vs inoculated/untreated control
compound,measurement,setting,value
"O=P(O)(O)CN(CCN(CP(=O)(O)O)CP(=O)(O)O)CCN(CP(=O)(O)O)CP(=O)(O)O [Example 24, Diethylenetriamine penta(methylene phosphonic acid)]",VFA Red. at 0.5 h (%),,2.1%
same,VFA Red. at 2 h (%),,6.4%
same,VFA Red. at 2.5 h (%),,8.2%
"O=S([O-])O.[Na+] [Example 28, Sodium bisulfite]",VFA Red. at 0.5 h (%),[1],3.1%
same,VFA Red. at 2 h (%),[2],0.0%
same,VFA Red. at 2.5 h (%),[3],6.9%
"O=S([O-])O.[Na+] [Example 29, Sodium bisulfite]",VFA Red. at 0.5 h (%),[1],1.0%
same,VFA Red. at 2 h (%),[2],14.6%
same,VFA Red. at 2.5 h (%),[3],25.5%
"O=P(O)(O)CN(CCN(CP(=O)(O)O)CP(=O)(O)O)CCN(CP(=O)(O)O)CP(=O)(O)O [Example 25, Diethylenetriamine penta(methylene phosphonic acid)]",VFA Red. at 0.5 h (%),,8.3%
same,VFA Red. at 2 h (%),,12.5%
same,VFA Red. at 2.5 h (%),,9.1%
Polyamino polyether methylene phosphonic acid [Example 9],VFA Red. at 4 h (%),[4],5%
Diethylenetriamine penta(methylene phosphonic acid) sodium salt [Example 27],VFA Red. at 0.5 h (%),sodium salt,4.2%
same,VFA Red. at 2 h (%),sodium salt,7.9%
same,VFA Red. at 2.5 h (%),sodium salt,6.9%
"O=P(O)(O)CN(CCN(CP(=O)(O)O)CP(=O)(O)O)CCN(CP(=O)(O)O)CP(=O)(O)O [Example 8, Diethylenetriamine penta(methylene phosphonic acid)]",VFA Red. at 4 h (%),,25%
O=P(O)(O)CN(CCCCCCN(CP(=O)(O)O)CP(=O)(O)O)CCCCCCN(CP(=O)(O)O)CP(=O)(O)O [Example 6],VFA Red. at 4 h (%),[4],12%
Diethylenetriamine penta(methylene phosphonic acid) sodium salt [Example 26],VFA Red. at 0.5 h (%),sodium salt,3.1%
same,VFA Red. at 2 h (%),sodium salt,6.4%
same,VFA Red. at 2.5 h (%),sodium salt,9.1%
Polyamino polyether methylene phosphonic acid [Example 10],VFA Red. at 4 h (%),[4],10%
"O=P1([O-])OP(=O)([O-])OP(=O)([O-])OP(=O)([O-])OP(=O)([O-])OP(=O)([O-])O1.[Na+].[Na+].[Na+].[Na+].[Na+].[Na+] [Example 4, Sodium hexametaphosphate]",VFA Red. at 4 h (%),[4],4%
"O=P(O)(O)CN(CCN(CP(=O)(O)O)CP(=O)(O)O)CCN(CP(=O)(O)O)CP(=O)(O)O [Example 7, Diethylenetriamine penta(methylene phosphonic acid)]",VFA Red. at 4 h (%),,19%
"O=P1([O-])OP(=O)([O-])OP(=O)([O-])OP(=O)([O-])OP(=O)([O-])OP(=O)([O-])O1.[Na+].[Na+].[Na+].[Na+].[Na+].[Na+] [Example 3, Sodium hexametaphosphate]",VFA Red. at 4 h (%),[4],0%
O=P(O)(O)CN(CCCCCCN(CP(=O)(O)O)CP(=O)(O)O)CCCCCCN(CP(=O)(O)O)CP(=O)(O)O [Example 5],VFA Red. at 4 h (%),[4],4%
